In patent US9879004B2, “Substituted acetylene derivatives and their use as positive allosteric modulators of mGluR4” (Merck Patent GmbH, priority 2013, dated 2018) one finds EC50 data, which are given here for nine molecules.

The test deals with T1, mGluR4 (HEK293T-hmGluR4 cells) (Homo sapiens, UniProt Q14833).
T1 construct: host or cells: HEK293T
T1 sequence (Q14833 33-912): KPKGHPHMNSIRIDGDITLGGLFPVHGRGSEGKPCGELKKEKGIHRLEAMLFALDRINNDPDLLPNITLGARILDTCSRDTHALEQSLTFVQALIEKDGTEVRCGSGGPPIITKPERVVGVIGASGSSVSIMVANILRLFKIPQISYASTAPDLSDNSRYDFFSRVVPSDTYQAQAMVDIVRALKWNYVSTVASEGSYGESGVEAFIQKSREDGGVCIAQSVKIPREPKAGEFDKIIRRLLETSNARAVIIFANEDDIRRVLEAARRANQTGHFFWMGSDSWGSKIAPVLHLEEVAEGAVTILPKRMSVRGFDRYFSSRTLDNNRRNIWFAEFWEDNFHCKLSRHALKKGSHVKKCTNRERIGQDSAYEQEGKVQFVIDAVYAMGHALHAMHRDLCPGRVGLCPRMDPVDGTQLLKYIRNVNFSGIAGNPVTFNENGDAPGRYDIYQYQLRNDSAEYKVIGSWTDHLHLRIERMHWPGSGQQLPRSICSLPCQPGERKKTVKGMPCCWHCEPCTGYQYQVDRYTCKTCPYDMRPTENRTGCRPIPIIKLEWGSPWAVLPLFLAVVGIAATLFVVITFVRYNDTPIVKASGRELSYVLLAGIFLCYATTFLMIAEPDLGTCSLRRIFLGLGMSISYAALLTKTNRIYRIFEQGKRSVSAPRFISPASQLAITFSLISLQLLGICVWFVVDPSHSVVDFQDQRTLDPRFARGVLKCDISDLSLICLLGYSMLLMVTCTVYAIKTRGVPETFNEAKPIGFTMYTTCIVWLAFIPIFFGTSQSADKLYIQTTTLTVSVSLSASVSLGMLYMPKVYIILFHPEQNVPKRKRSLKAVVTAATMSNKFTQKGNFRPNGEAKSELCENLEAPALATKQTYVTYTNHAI
The experiment in a line: HEK-293 mGluR4 cells cAMP assay with EC20 L-Glutamate (HTRF). The note with it: positive allosteric activity at EC20 L-Glutamate, 10 μM Forskolin, cAMP HTRF readout, read-out: hrmGluR4/HEK293T-hmGluR4 (EC50). In kind it is cell-based. Here is the method: HEK-293 mGluR4 cells cAMP assay with EC20 L-Glutamate
Using mGluR4 suspension cell format, 10 μM Forskolin (final conc.) used to induce the production of cAMP.
Test the positive allosteric activity of the compounds of the invention at EC20 (2.3 μM for mGluR4 and 4.3 μM for mGluR6) L-Glutamate,
cAMP dymanic2 kit is intended for the direct quantitative determination of cAMP and its principle is based on HTRF technology.
Cells: HEK293T mGluR4 cells from Multispan, cat# C1191a lot# C1191a-040910 Culture Media: DMEM+GlutaMAX1+10% dialyzed FBS, 100 mM Sodium Pyruvate, 1 ug/ml puromycin.
Glutamine Starvation Media: DMEM without GlutaMax for plating the cells (glutamine starvation overnight). DMEM high Glucose, without phenol red, glutamine, or sodium pyruvate+10% dialyzed FBS, 100 mM Sodium Pyruvate, 1 ug/ml puromycin, 10 mM Hepes.
Cell Preparation: split cells at 80%-90% confluence. The following day, rinse the cells with DMEM without GlutaMax and change to Glutamine Starvation Media. Incubate overnight.
Prepare compound plate: Perform compound serial dilution (uses Matrix 4341 plate), using the Bravo liquid handling platform protocol (compound serial dilution) which adds DMSO to columns 1-24 (except cols. 3 and 13). Serial dilute compounds located in columns 3 and 13 at a 1:3 ratio; 10 points (10 ul of 3 mM compound into 20 ul DMSO). Use the Bravo liquid handling platform to transfer 1 ul from the serial dilution plate into Matrix 4314 plate to create stamp plates.
Dilute 20 mM Forskolin (in DMSO) stock solution in HBSS buffer to make a 20 uM solution (forskolin buffer; 2× solution). To the forskolin buffer, add glutamate to a concentration of 8 uM (compound dilution buffer; 2×EC20 glutamate and forskolin).
Using a multidrop, add 50 ul/well of compound dilution buffer to columns 1-22 of the 2 ul compound stamp plate. Columns 23 and 24 receive forskolin buffer containing 400 uM glutamate (EC100 glutamate; 2× solution). Columns 1 and 2 receive compound dilution buffer containing EC20 glutamate, which is the basal control. Add a glutamate dose response to row P of compound plate. Prepare the dose response by serial diluting glutamate at a 1:3 ratio in forskolin buffer starting at 2 mM glutamate (2×). Dilute the glutamate 9 times and transfer to compound plate.
Harvest cells: Rinse cells with pre-warmed HBSS-10 mM HEPES (without Ca Mg) and dissociate the cells from the flask with versene. Centrifuge the cells, remove the supernatant and suspend in pre-warmed HBSS+10 mM Hepes. Count the cells and centrifuge. Remove the supernatant and suspend the cells in HBSS+Hepes (with Ca Mg) at a density of 400,000 cells/ml.
Dispense 5 ul from the diluted compound plate into Greiner low volume cell plate using the Bravo liquid handling platform. Using a Multidrop with the small tubing cassette, dispense 5 ul of cells (2000 cells/well) onto the compounds contained in the low volume plates. Incubate the cells at 37° C., 5% CO2 for 30 minutes in the incubator.
Prepare cAMP-d2 and anti-cAMP-Crytate according to the instructions for the two step assay (see Cisbio manual) and add 10 ul of the mixed reagent to each well of the assay plate using the Multidrop. Incubate at room temperature for 60 minutes and read on the Envision plate reader using the mGluR low volume cAMP HTRF 384 well protocol. The readout is the calculated fluorescence ratio ([…]*10000).
Regarding `Fc1ccc(C#Cc2ccnc3ccccc23)cc1` [Compound 4, 4-(4-Fluoro-phenylethynyl)-quinoline], the EC50 is < 1000 nM.
The value for `C(#Cc1ccnc2ccccc12)c1cccs1` [Compound 6, 4-Thiophen-2-ylethynyl-quinoline] was 1000 to 10000 nM; that for `Fc1cccc(C#Cc2ccnc3ccccc23)c1` [Compound 2, 4-(3-Fluoro-phenylethynyl)-quinoline] was < 1000 nM.
Then `C(#Cc1ccnc2ccccc12)c1ccsc1` [Compound 3, 4-Thiophen-3-ylethynyl-quinoline], with < 1000 nM; and `Fc1ccccc1C#Cc1ccnc2ccccc12` [Compound 7, 4-(2-Fluoro-phenylethynyl)-quinoline], with 1000 to 10000 nM; and `Fc1ccc(C#Cc2ccnc3ccccc23)cc1F` [Compound 5, 4-(3,4-Difluoro-phenylethynyl)-quinoline], with < 1000 nM.
The value for `Clc1cccc(C#Cc2ccnc3ccccc23)c1` [Compound 9, 4-(3-Chloro-phenylethynyl)-quinoline] was 1000 to 10000 nM; that for `Fc1ccccc1C#Cc1ccnc2[nH]ccc12` [Compound 8, 4-(2-Fluoro-phenylethynyl)-1H-pyrrolo[2,3-b]pyridine] was 1000 to 10000 nM.
On to `C(#Cc1ccnc2ccccc12)c1ccccc1` [Compound 1, 4-Phenylethynyl-quinoline], for which the EC50 is < 1000 nM.
